Results taken from US5627191A, “Therapeutic agents” (The Boots Company PLC, priority 1992, dated 1997).

How the values were obtained:
[1] = biological target: T1, adrenal membrane angiotensin II receptor (Oryctolagus cuniculus, UniProt P34976); test: Test A: binding affinity to the adrenal membrane angiotensin II receptor in vitro; design: species or system rabbit (male New Zealand white); conditions: rabbit adrenal membranes, 0.05 nM [^125 I]angiotensin II, 60 minutes at 25° C.; read-out: Ki from Test A
T1 construct: Aliquots of rabbit adrenal membranes containing 10-30 μg protein were incubated; from tissue; host or cells: adrenal gland membranes of male New Zealand white rabbits
T1 sequence (P34976 1-359): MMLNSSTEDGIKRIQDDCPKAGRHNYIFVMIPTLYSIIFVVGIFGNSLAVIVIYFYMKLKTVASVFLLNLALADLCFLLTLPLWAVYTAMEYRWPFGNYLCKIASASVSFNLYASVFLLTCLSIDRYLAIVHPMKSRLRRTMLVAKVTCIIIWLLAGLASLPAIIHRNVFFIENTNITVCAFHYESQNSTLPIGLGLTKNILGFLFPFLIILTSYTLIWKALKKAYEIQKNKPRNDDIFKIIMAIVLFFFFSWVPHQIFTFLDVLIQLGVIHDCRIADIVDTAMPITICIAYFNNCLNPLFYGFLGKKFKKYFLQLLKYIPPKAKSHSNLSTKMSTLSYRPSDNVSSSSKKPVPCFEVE
Experimental: In test A the binding affinity of compounds to the adrenal membrane angiotensin II receptor was determined in vitro and in tests B and C the antihypertensive effect of the compounds was measured in vivo. A detailed description of the tests follows. Test A 1) Preparation of Membranes Adrenal glands from male New Zealand white rabbits were homogenised on ice in 20 mM aqueous sodium bicarbonate solution containing 50 μM PMSF (phenylmethanesulphonyl fluoride) (2 ml/g wet weight) using a Polytron (Trademark) homogeniser for 3×15 seconds at setting 8. The homogenate was centrifuged at 900 g for 10 minutes at 4° C. and the pellet was discarded. The supernatant was recentrifuged at 30000 g for 30 minutes at 4° C., and the resulting pellet was resuspended in assay buffer (50 mM Tris-HCl, pH 7.4, containing 1 mM EDTA, 6.5 mM MgCl2, 125 mM NACl, 50 μM PMSF, 5 μg/ml pepstatin and 50 μg/ml each of leupeptin, antipain, aprotinin and chymostatin): 10 ml per g original tissue wet weight. Polyethylene glycol was added (final concentration 30%) as a cryopreservant and the membrane preparation divided into aliquots and stored at -80° C. until required. Protein was determined by a modification of the method of Lowry (Markwell et al, (1978) Anal. Biochem., 87: 206-210). 2) Binding Assay Aliquots of rabbit adrenal membranes containing 10-30 μg protein were incubated with 0.05 nM [^125 I]angiotensin II in the presence or absence of potential angiotensin II antagonists in 1 ml polyamide tubes in a total volume of 200 μI assay buffer. After incubation for 60 minutes am 25° C. the reaction was terminated by the addition of ice-cold assay buffer, and the bound and free radioactivity was separated through Skatron (Trademark) receptor-binding filters, pre-wetted with assay buffer, using a Skatron cell harvester. The filters were washed with ice-cold phosphate buffered saline, dried, and the trapped radioactivity was determined using a gamma counter. Non-specific binding, measured in the presence of 2 μM unlabelled angiotensin II, was subtracted from total binding to obtain specific binding. Radioligand binding curves were analysed using EBDA and LIGAND (Cambridge Biosoft). Values for binding affinity were obtained by nonlinear regression analysis of untransformed data. The activities of the compounds described in the Examples given hereinafter are set out below in Table A, Column 1.

[2] = Hygroscopicity observed in preparation; format: physicochemical; conditions: dried before use by heating in vacuo

Row | Structure (SMILES) | Ki [1] [nM] | hygroscopic [2]
1 | CCc1nc2c(C)cc(C)nc2n1Cc1ccc(-c2ccccc2-c2c(OC(C)OC(=O)C(C)(C)C)c(=O)c2=O)cc1 (stereo not shown) [Example 17, 1-[2-[4'-(2-ethyl-5,7-dimethyl-3H-imidazo[4,5-b]pyrid-3-ylmethyl)biphenyl-2-yl]-3,4-dioxocyclobut-1-en-1-yloxy]ethyl pivalate 0.22 ethyl acetate solvate] | 21.5 | appeared to be hygroscopic
2 | CCc1nc2c(C)cc(C)nc2n1Cc1ccc(-c2ccccc2-c2c(N(C)C)c(=O)c2=O)cc1 [Example 16, 3-dimethylamino-4-[4'-(2-ethyl-5,7-dimethyl-3H-imidazo-[4,5-b]pyrid-3-ylmethyl)biphenyl-2-yl]cyclobut-3-ene-1,2-dione] | 1890 | appeared to be hygroscopic
